Earlier results in paper PMC8170883 (Viruses, 2021).

What was measured:
SARS-Cov-2 = conditions: cell cultures
SARS-CoV-2 nsp12 (RdRp) = conditions: blocks binding of RNA to the enzyme

SMILES	Antiviral effect against SARS-CoV-2 (SARS-Cov-2)	Inhibition of RdRp (SARS-CoV-2 nsp12 (RdRp))
CCN(CC)CCCC(C)Nc1c2ccc(Cl)cc2nc2ccc(OC)cc12 (stereo not shown) [Quinacrine, quinacrine]	antiviral effects	
CCN(CC)CCCC(C)Nc1ccnc2cc(Cl)ccc12 (stereo not shown) [Chloroquine, chloroquine]	antiviral effects	
Cc1ccc(C(=O)Nc2ccc(S(=O)(=O)O)c3cc(S(=O)(=O)O)cc(S(=O)(=O)O)c23)cc1NC(=O)c1cccc(NC(=O)Nc2cccc(C(=O)Nc3cc(C(=O)Nc4ccc(S(=O)(=O)O)c5cc(S(=O)(=O)O)cc(S(=O)(=O)O)c45)ccc3C)c2)c1 [Suramin]	antiviral effects	potent inhibitor
